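Results reflect a 48-hour exposure of cells in 96-well plates to compound at five concentrations. GI50 = concentration required for 50% inhibition of growth. TGI: total growth inhibition.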
What was measured:
Assay in all cases: inhibition of tumour cell growth, NCI panel, 48 h
[1] = test system: 786-0 renal
[2] = test system: A498 renal
[3] = test system: A549 NSCLC
[4] = test system: ACHN renal
[5] = test system: BT-549 breast
[6] = test system: CAKI-1 renal
[7] = test system: CCRF-CEM leukemia
[8] = test system: COLO 205 colon
[9] = test system: DU-145 prostate
[10] = test system: EKVX NSCLC
[11] = test system: HCC-2998 colon
[12] = test system: HCT-116 colon
[13] = test system: HCT-15 colon
[14] = test system: HL-60(TB) leukemia
[15] = test system: HOP-62 NSCLC
[16] = test system: HOP-92 NSCLC
[17] = test system: HS 578T breast
[18] = test system: HT29 colon
[19] = test system: IGROV1 ovarian
[20] = test system: K-562 leukemia
[21] = test system: KM12 colon
[22] = test system: LOX IMVI melanoma
[23] = test system: M14 melanoma
[24] = test system: MALME-3M melanoma
[25] = test system: MCF7 breast
[26] = test system: MDA-MB-231 breast
[27] = test system: MDA-MB-435
[28] = test system: MDA-N
[29] = test system: MOLT-4 leukemia
[30] = test system: NCI-H226 lung
[31] = test system: NCI-H23 lung
[32] = test system: NCI-H460 lung
[33] = test system: NCI-H522 lung
[34] = test system: NCI/ADR-RES ovarian
[35] = test system: OVCAR-3 ovarian
[36] = test system: OVCAR-4 ovarian
[37] = test system: OVCAR-5 ovarian
[38] = test system: OVCAR-8 ovarian
[39] = test system: PC-3 prostate
[40] = test system: RPMI-8226 leukemia
[41] = test system: RXF 393 renal
[42] = test system: SF-268 CNS
[43] = test system: SF-295 CNS
[44] = test system: SF-539 CNS
[45] = test system: SK-MEL-2 melanoma
[46] = test system: SK-MEL-28 melanoma
[47] = test system: SK-MEL-5 melanoma
[48] = test system: SK-OV-3 ovarian
[49] = test system: SN12C renal
[50] = test system: SNB-19 CNS
[51] = test system: SNB-75 CNS
[52] = test system: SR leukemia
[53] = test system: SW-620 colon
[54] = test system: T-47D breast
[55] = test system: TK-10 renal
[56] = test system: U251 CNS
[57] = test system: UACC-257 melanoma
[58] = test system: UACC-62 melanoma
[59] = test system: UO-31 renal

CC(=O)NCCc1c2c(c3nccc4c3c1Nc1ccccc1-4)OCS2
GI50 [1]: 3.66 µM | TGI [1]: 28.9 µM | GI50 [2]: 0.698 µM | TGI [2]: 19.1 µM | GI50 [3]: 1.29 µM | TGI [3]: 11.3 µM | GI50 [4]: 0.199 µM | TGI [4]: 3.27 µM | GI50 [5]: 6.13 µM | TGI [5]: 19.7 µM | GI50 [6]: 0.249 µM | TGI [6]: 8.59 µM | GI50 [7]: 1.28 µM | GI50 [8]: 2.38 µM | TGI [8]: 15.6 µM | GI50 [9]: 1.06 µM | TGI [9]: 2.48 µM | GI50 [10]: 2.05 µM | TGI [10]: 16.1 µM | GI50 [11]: 45.8 µM | TGI [11]: > 100 µM | GI50 [12]: 2.22 µM | GI50 [13]: 1.26 µM | TGI [13]: 8.77 µM | GI50 [14]: 2.97 µM | TGI [14]: 14.3 µM | GI50 [15]: 3.6 µM | TGI [15]: 34.1 µM | GI50 [16]: 2.02 µM | TGI [16]: 21 µM | GI50 [17]: 8.19 µM | TGI [17]: 37 µM | GI50 [18]: 0.968 µM | TGI [18]: 4.77 µM | GI50 [19]: 0.976 µM | TGI [19]: 5.61 µM | GI50 [20]: 2.93 µM | TGI [20]: 56.2 µM | GI50 [21]: 2.39 µM | TGI [21]: 10.8 µM | GI50 [22]: 1.26 µM | TGI [22]: 3.85 µM | GI50 [23]: 1 µM | TGI [23]: 4.57 µM | GI50 [24]: 7.28 µM | TGI [24]: 24.7 µM | GI50 [25]: 0.801 µM | TGI [25]: 8.47 µM | GI50 [26]: 0.594 µM | TGI [26]: 6.61 µM | GI50 [27]: 3.88 µM | TGI [27]: 18.9 µM | GI50 [28]: 1.45 µM | TGI [28]: 15.5 µM | GI50 [29]: 2.38 µM | TGI [29]: > 100 µM | GI50 [30]: 11.6 µM | TGI [30]: 26.5 µM | GI50 [31]: 1.52 µM | TGI [31]: 12.3 µM | GI50 [32]: 0.498 µM | TGI [32]: 9.98 µM | GI50 [33]: 0.936 µM | TGI [33]: 3.11 µM | GI50 [34]: 4.83 µM | TGI [34]: > 38.2 µM | GI50 [35]: 1.48 µM | TGI [35]: 5.67 µM | GI50 [36]: 1.92 µM | TGI [36]: 6.02 µM | GI50 [37]: 5.21 µM | TGI [37]: 21.3 µM | GI50 [38]: 2.09 µM | TGI [38]: > 33.1 µM | GI50 [39]: 2.95 µM | TGI [39]: 9.33 µM | GI50 [40]: 0.895 µM | GI50 [41]: 3.02 µM | TGI [41]: 13.5 µM | GI50 [42]: 1.56 µM | TGI [42]: 11.4 µM | GI50 [43]: 1.87 µM | TGI [43]: 15.1 µM | GI50 [44]: 6.63 µM | TGI [44]: 25.1 µM | GI50 [45]: 3 µM | TGI [45]: 13.9 µM | GI50 [46]: 3.45 µM | TGI [46]: 15.7 µM | GI50 [47]: 2.99 µM | TGI [47]: 14.5 µM | GI50 [48]: 1.52 µM | TGI [48]: 18.8 µM | GI50 [49]: 0.741 µM | TGI [49]: 4.79 µM | GI50 [50]: 3.17 µM | TGI [50]: 18.8 µM | GI50 [51]: 15.3 µM | TGI [51]: 70.4 µM | GI50 [52]: 0.0354 µM | TGI [52]: > 100 µM | GI50 [53]: 0.226 µM | TGI [53]: 8.15 µM | GI50 [54]: 2.39 µM | TGI [54]: 12.8 µM | GI50 [55]: 5.56 µM | TGI [55]: 18.9 µM | GI50 [56]: 1.72 µM | TGI [56]: 15.7 µM | GI50 [57]: 13.8 µM | TGI [57]: 27 µM | GI50 [58]: 5.5 µM | TGI [58]: 19.3 µM | GI50 [59]: 1.05 µM | TGI [59]: 6.37 µM

Source: PubChem BioAssay (NCI)
